{"source": "patent US11760784B2", "about": "“Compositions comprising PEDF-derived short peptides and uses thereof” (BRIM Biotechnology, Inc., priority 2016, dated 2023)", "key": {"MCP-1 mRNA": {"test_system": "MCP-1 mRNA", "test": "Ocular MCP-1 mRNA by quantitative real-time PCR in CEC dry eye mice", "type": "in vivo, C57BL6 mice", "conditions": "CEC 14 days, then topical PDSP for 5 days", "method": "(§1) Dry eye is associated with abnormalities in the pre-corneal tear film and subsequent inflammatory changes in the entire ocular surface including the adnexa, conjunctiva and cornea. (see, Hessen et al., “Dry eye: An Inflammatory Ocular Disease,” J. Ophthalmic Vis. Res., 2014, 9(2): 240-250). Therefore, the effects of PDSPs in corneal inflammatory responses were next examined. Briefly, C57BL6 mice were housed in CEC for 14 days (Day 0) and then treatment with PDSP or vehicle were performed for additional 5 days (Day 5). Then, mRNA levels for inflammatory factors were evaluated by quantitative real-time PCR.\n(§2) The total RNA was extracted from cells using TRIzol (Invitrogen) and treated with RNase free DNase I (Qiagen, Santa Clarita, CA) to remove genomic DNA and then purified with an RNA purification kit (Dynabeads; Invitrogen). […] Quantitative real-time PCR was performed in a GeneAmp 7700 sequence detection system (Applied Biosystems, Foster City, CA). […] All determinations were measured in triplicate. The cycle threshold (Ct) values corresponded to the PCR cycle number at which fluorescence emission in real time reaches a threshold above the base-line emission were analyzed using GeneAmp 7700 SDS software. The Ct value of the PCR product of interest and a control mRNA (GAPDH) were then used to calculate relative quantities of mRNA between samples."}, "[1]": {"test_system": "intracellular ROS in rabbit corneal epithelial cells", "test": "Intracellular ROS (H2DCFDA probe) in NaCl-treated corneal epithelial cells", "type": "cell-based", "method": "We therefore examined the effects of PDSP on the intracellular ROS and GSH levels in NaCl-treated (HOP) rabbit corneal epithelial cells. Briefly, rabbit corneal epithelial cells were pretreated with 10 μM PDSP or a negative control peptide (ConP) for 20 hours, followed by treatment with NaCl to induce hyperosmotic stress. After NaCl treatment for another 24 hours, cells were assessed for ROS using a 2′,7′-dichlorodihydrofluorescein diacetate (H2DCFDA) probe, which is an ROS indicator dye. […]\nIntracellular ROS generation was assayed using 2′,7′-dichlorodihydrofluorescein diacetate (H2DCFDA; Molecular Probes, Eugene, Oreg.) which, when oxidized by ROS, releases the green fluorescent compound 2′,7′-dichlorofluorescein (DCF). […] Fluorescence (excitation, 488 nm; emission, 520 nm) was measured with a Spectra MAX GEMINI Reader (Molecular Devices, Sunnyvale, Calif., USA). The background fluorescence from control wells without the addition of H2DCFDA was subtracted from the experimental readings.\nTo investigate the effect of hyperosmotic stress on the intracellular ROS formation, rabbit corneal epithelial cells were cultured in a hyperosmotic medium (463 mOsM) by adding 90 mM NaCl for 24 hours. The intracellular ROS levels were detected by H2DCFDA probe and measured the formation of DCF-fluorescence by spectrofluorometer."}, "[2]": {"test_system": "goblet cells in the conjunctiva", "test": "PAS staining of conjunctival goblet cells in CEC dry eye mice", "type": "in vivo, C57BL/6 mice", "conditions": "CEC 14 days, then eye drop for 5 days; vehicle 37±1.1; non-stressed 58±3.1", "method": "Reduced mucin production could result from reduced goblet cells. […] Briefly, C57BL6 mice were housed in CEC for 14 days and then treated with PDSP or vehicle for additional 5 days. Non-stressed eyes are included as non-stressed controls (NS).\nDry eye was induced by placing mice in a controlled environment chamber (CEC) as previously described (Barabino et al., 2005). Briefly, mice placed in the CEC were exposed to a relative humidity (RH)<25%, temperature of 20 to 22° C., and airflow of 15 L/min, 12 hours per day. Non-stressed (NS) mice without stress-induced dry eye were kept in a normal environment (RH >50%, no air flow, temperature of 21-23° C.) for the same duration. Corneal fluorescein staining and\nAfter animals were euthanized, eyes were surgically excised, fixed in 10% formalin, paraffin embedded, and cut into 5-μm sections. […] PAS-positive goblet cells in the conjunctiva were measured in five sections from each eye."}, "TNF-α mRNA": {"test_system": "TNF-α mRNA", "test": "Ocular TNF-α mRNA by quantitative real-time PCR in CEC dry eye mice", "type": "in vivo, C57BL6 mice", "conditions": "CEC 14 days, then topical PDSP for 5 days", "method": "as §1, §2"}}}
{"substance": "PDSP: 29mer, residues 93-121 of human PEDF: SLGAEQRTESIIHRALYYDLISSPDIHGT (SEQ ID NO:4) (listed as Homo sapiens)", "values": [{"measurement": "repression of ocular MCP-1 mRNA expression compared to vehicle-treated group", "setting": "MCP-1 mRNA", "value": 1.7, "unit": "fold"}, {"measurement": "DCF fluorescence without HOP (peptide alone)", "setting": "[1]; 10 μM PDSP, isotonic medium, compared to untreated", "value": "did not increase DCF fluorescence"}, {"measurement": "suppression of DCF-fluorescence level compared to cells treated with NaCl alone", "setting": "[1]; 10 μM peptide pretreatment 20 hours, then hyperosmotic medium (463 mOsM, 90 mM NaCl) 24 hours", "value": 1.3, "unit": "fold"}, {"measurement": "conjunctival goblet cell counts (PAS-positive cells)", "setting": "[2]", "value": "46±3.8"}, {"measurement": "repression of ocular TNF-α mRNA expression compared to vehicle-treated group", "setting": "TNF-α mRNA", "value": 1.9, "unit": "fold"}]}
